Earlier results as cited in patent US20220040193A1, “FORMULATIONS OF PHOSPHOINOSITIDE 3-KINASE INHIBITORS” (VENTHERA, INC., priority 2020, published 2022).

For `Oc1cccc(-c2nc(N3CCOCC3)c3sccc3n2)c1` [MTPP, 3-(4-morpholinothieno(3,2-d)pyrimidin-2-yl)phenol], the PI3K inhibiting activity (PI3K) is given as “excellent PI3K inhibiting activity” and the “cancer cell growth inhibiting activity” value (cancer cell) is given as “cancer cell growth inhibiting activity”.
